Literature values as cited in patent US20070014819A1, “Method of emulsifying phytosterol by natural saponin,emulsion prepared thereby and water dispersible phytosterol powder product” (WECKTECK BIOTECHNOLOGY COMPANY LIMITED, priority 2005, published 2007).

Tests used:
[1] = around the world
[2] = administered orally directly
[3] = purified
[4] = system: cholesterol in blood

Row | Compound | people dead from the side effects [1] | absorption rate in a human body [2] | solubility in water or oil and most solvents [3] | reduction of total cholesterol in blood ([4]; daily intake of 1.4 g for one month) | reduction of the concentration of LDL ([4]; daily intake of more than 1.3 g, FDA article)
1 | COCc1c(C(C)C)nc(C(C)C)c(/C=C/[C@@H](O)C[C@@H](O)CC(=O)O)c1-c1ccc(F)cc1 [Baycol, cerivastatin] | more than 100 people |  |  |  | 
2 | CC(C)CCC[C@@H](C)[C@H]1CC[C@H]2[C@@H]3CC=C4C[C@@H](O)CC[C@]4(C)[C@H]3CC[C@]12C [cholesterol, reference compound] |  | more than 50% |  |  | 
3 | β-sitosterol [phytosterol] |  | less than 5% | difficult to be dissolved | about 14% | effectively reduce
